Results published in patent US20260199359A1 (INCYTE CORPORATION, priority 2021, published 2026).
Several values for one entry are separate records, joined by “and”; a condition that tells them apart may be missing. Equal entries are not always repeated. Where two headings read alike, the source gives them in different places.

Legend:
[1] = Apparent pH of solvent systems before API addition and of saturated supernatant; assay type: physicochemical
[2] = Compatibility / immiscibility of bases and trolamine levels in solvent systems; assay type: physicochemical
[3] = physchem
[4] = SSCR01 with 3.50% w/w of the named base, before API addition
[5] = SSCR01 with 3.50% w/w of the named base, saturated with ruxolitinib phosphate
[6] = SSNA01 with 3.50% w/w of the named base, before API addition
[7] = SSNA01 with 3.50% w/w of the named base, saturated with ruxolitinib phosphate
[8] = SSAG01 with 3.50% w/w of the named base, before API addition
[9] = SSAG01 with 3.50% w/w of the named base, saturated with ruxolitinib phosphate

Compound	Vehicle pH [1, 4]	Supernatant pH [1, 5]	Vehicle pH [1, 6]	Supernatant pH [1, 7]	Compatibility of base with solvent system ([2]; SSAG01)	compatibility of the base with the solvent system ([2]; SSAG01)	other results
CC(O)CNCC(C)O (centres unmarked) [Diisopropanolamine]	10.63	3.49	9.89	6.51			apparent pH of SSAG01 following API addition with the named base ([1]; SSAG01, after ruxolitinib phosphate addition): 4.29; Vehicle pH [1, 8]: 11.31; Supernatant pH [1, 9]: 4.29
CC(C)NC(C)C [Diisopropylamine]							Supernatant pH [1]: 4.80 and 4.53; Vehicle pH [1]: 10.62 and 12.57; Compatibility of base with solvent system ([2]; SSCR01): Incompatible; compatibility of the base with the solvent system ([2]; SSCR01): incompatible
N#CC[C@H](C1CCCC1)n1cc(-c2ncnc3[nH]ccc23)cn1 [Ruxolitinib phosphate, ruxolitinib phosphate]							solubility at 24 h [3]: 11.3 mg/mL
Ethanolamine							Supernatant pH [1]: 6.65 and 6.55 and 5.33; Vehicle pH [1]: 10.27 and 12.25 and 11.52; apparent pH of SSCR01 following API addition with the named base [1]: 5.33; apparent pH of SSNA01 following API addition with the named base [1]: ca. 6.6

The next lines start with results.

Vehicle pH [1, 4]	Supernatant pH [1, 5]	Vehicle pH [1, 6]	Supernatant pH [1, 7]	Compatibility of base with solvent system ([2]; SSAG01)	compatibility of the base with the solvent system ([2]; SSAG01)	Compound	other results
10.38	3.29	10.27	4.99	Incompatible	incompatible	CCC(N)(CO)CO [2-Amino-2-ethyl-1,3-propanediol]	
11.44	3.61	10.45	4.98			CC(C)(N)CO [2-Amino-2-methyl-1-propanol]	Vehicle pH [1, 8]: 12.17; Supernatant pH [1, 9]: 4.34
10.88		10.30		Incompatible	incompatible	OCCNCCO [Diethanolamine]	
10.08	3.45			Incompatible	not compatible	NC(CO)(CO)CO [Tris]	Compatibility of base with solvent system ([2]; SSNA01): Incompatible; compatibility of the base with the solvent system ([2]; SSNA01): incompatible
